The results in this text go back to patent publication US12448358B2, “Inhibitors of protein arginine deiminase 1 and methods of preparation and use thereof” (University of Massachusetts, priority 2019, dated 2025).

pKi: −log10 of the molar value. Where two headings read alike, the source gives them in different places.

What all share (type): biochemical
One experiment concerns the target T1, PAD2 (Homo sapiens, UniProt Q9Y2J8).
T1 construct: made in house
As to the kind of experiment: Inactivation kinetics of PAD2 (COLDER citrulline assay). The following applies: for pKi: concentration of inhibitor that affords half-maximal inactivation; for Fold PAD selectivity: bracketed value under kinact/KI; for kinact/KI: marks: * nonlinear fit of kobs versus [I], ‡ linear fit, † single kobs. How it is done: (§1) Inactivation kinetics. […] After 15 min, reactions were quenched with liquid nitrogen and the production of citrulline was quantified using the COLDER assay. (Kearney, et al. Biochemistry 2005, 44, 10570-10582; Knipp, et al. Anal. Biochem. 2000, 286, 257-264.) The time-dependence of PAD inhibition was fit to the following equation 1, […] (1), using Grafit, version 5.0.11, where v is velocity, ν0 is initial velocity, k (or kobs is the pseudo-first-order rate constant of inactivation, and t is time. Upon reaching saturation, the concentration dependence of kobs was fit to equation 2, kobs=kinact[I]/(KI+[I]), (2), using Grafit, version 5.0.11, where kinact is the maximal rate of inactivation, KI is the concentration of inhibitor that affords half-maximal inactivation, and [I] is the concentration of inhibitor. When kobs with [I] varied linearly, kinact/KI was determined from the slope of the line. All the experiments were performed at least in duplicate.

The next experiment concerns the target T2, PAD3 (Homo sapiens, UniProt Q9ULW8).
T2 construct: made in house
T2 sequence (Q9ULW8 1-664): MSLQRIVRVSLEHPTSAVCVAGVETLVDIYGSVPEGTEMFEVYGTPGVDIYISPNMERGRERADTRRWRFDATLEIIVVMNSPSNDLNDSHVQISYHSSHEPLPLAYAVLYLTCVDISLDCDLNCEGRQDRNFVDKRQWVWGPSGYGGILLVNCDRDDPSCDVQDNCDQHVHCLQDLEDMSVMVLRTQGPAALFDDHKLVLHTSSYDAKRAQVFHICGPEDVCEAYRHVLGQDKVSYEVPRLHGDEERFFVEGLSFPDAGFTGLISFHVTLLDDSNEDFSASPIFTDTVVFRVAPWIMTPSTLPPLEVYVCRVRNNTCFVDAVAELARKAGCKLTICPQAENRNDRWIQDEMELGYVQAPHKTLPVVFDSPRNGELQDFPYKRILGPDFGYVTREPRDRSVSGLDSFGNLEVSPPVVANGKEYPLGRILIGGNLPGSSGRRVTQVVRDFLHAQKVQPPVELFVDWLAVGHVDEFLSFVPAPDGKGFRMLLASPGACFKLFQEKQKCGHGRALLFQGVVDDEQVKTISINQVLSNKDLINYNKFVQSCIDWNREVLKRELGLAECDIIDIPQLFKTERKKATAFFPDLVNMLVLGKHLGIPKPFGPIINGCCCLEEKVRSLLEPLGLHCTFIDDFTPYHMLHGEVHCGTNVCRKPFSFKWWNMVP
Description: Inactivation kinetics of PAD3 (COLDER citrulline assay). The following applies: for Fold PAD selectivity: bracketed value under kinact/KI; for kinact/KI: marks: * nonlinear fit of kobs versus [I], ‡ linear fit, † single kobs. Here is the method: as §1

In a further experiment the target is T3, PAD1 (Homo sapiens, UniProt Q9ULC6).
T3 construct: made in house
T3 sequence (Q9ULC6 1-663): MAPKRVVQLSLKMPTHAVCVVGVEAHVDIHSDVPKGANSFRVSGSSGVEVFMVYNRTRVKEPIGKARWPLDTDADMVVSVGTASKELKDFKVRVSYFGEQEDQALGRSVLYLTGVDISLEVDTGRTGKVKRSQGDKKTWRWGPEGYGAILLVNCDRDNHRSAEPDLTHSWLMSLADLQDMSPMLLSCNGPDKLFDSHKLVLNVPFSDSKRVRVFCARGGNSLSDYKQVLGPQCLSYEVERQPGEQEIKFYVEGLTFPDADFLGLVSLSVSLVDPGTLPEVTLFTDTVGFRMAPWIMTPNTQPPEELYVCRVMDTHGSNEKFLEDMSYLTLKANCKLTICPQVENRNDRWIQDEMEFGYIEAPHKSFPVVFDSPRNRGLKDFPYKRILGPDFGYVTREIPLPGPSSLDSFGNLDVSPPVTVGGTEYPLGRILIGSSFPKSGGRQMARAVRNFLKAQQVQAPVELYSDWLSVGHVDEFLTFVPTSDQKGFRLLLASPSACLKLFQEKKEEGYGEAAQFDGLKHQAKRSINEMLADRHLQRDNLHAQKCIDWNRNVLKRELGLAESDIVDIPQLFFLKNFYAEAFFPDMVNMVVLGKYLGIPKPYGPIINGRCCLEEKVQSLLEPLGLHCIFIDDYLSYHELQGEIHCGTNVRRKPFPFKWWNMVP
Description: Inactivation kinetics of PAD1 (COLDER citrulline assay). The following applies: for kinact/KI / pKi / kinact / fold less potent than 1 (drop in potency for PAD1): PAD1; for kinact/KI: marks: * nonlinear fit of kobs versus [I], ‡ linear fit, † single kobs; for Fold PAD selectivity: PAD1 over the other PADs, bracketed value under kinact/KI; for pKi: concentration of inhibitor that affords half-maximal inactivation; for fold less potent than 1 (drop in potency for PAD1): relative to parent compound 1. Here is the method:
as §1

Another experiment addresses T4, PAD4 (Homo sapiens, UniProt Q9UM07).
T4 construct: made in house
Description: Inactivation kinetics of PAD4 (COLDER citrulline assay). The conditions noted are these: for Fold PAD selectivity: bracketed value under kinact/KI; for kinact/KI: marks: * nonlinear fit of kobs versus [I], ‡ linear fit, † single kobs. How it is done: as §1

Setting [1] is: read-out: kinact/KI (converted).
[2] abbreviates: concentration of inhibitor that affords half-maximal inactivation.

T1 sequence (Q9Y2J8 whole entry): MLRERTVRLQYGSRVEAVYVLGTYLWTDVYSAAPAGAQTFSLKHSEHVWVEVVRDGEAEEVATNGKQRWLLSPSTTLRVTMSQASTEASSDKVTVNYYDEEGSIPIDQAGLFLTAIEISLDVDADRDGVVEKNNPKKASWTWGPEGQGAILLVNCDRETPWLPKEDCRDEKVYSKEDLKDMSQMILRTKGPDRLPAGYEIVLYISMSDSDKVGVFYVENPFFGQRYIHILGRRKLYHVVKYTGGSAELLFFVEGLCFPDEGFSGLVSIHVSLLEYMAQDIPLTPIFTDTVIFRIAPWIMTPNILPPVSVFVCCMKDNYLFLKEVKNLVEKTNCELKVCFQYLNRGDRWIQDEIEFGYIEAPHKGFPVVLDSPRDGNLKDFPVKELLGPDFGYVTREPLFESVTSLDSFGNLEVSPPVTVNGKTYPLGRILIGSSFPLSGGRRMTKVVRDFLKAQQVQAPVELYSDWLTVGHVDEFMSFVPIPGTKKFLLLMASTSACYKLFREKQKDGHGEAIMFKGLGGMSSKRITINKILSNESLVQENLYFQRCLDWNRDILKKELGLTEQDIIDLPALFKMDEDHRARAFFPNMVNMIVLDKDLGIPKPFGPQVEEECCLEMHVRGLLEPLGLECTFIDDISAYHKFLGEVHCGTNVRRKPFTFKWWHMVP
T4 sequence (Q9UM07 whole entry): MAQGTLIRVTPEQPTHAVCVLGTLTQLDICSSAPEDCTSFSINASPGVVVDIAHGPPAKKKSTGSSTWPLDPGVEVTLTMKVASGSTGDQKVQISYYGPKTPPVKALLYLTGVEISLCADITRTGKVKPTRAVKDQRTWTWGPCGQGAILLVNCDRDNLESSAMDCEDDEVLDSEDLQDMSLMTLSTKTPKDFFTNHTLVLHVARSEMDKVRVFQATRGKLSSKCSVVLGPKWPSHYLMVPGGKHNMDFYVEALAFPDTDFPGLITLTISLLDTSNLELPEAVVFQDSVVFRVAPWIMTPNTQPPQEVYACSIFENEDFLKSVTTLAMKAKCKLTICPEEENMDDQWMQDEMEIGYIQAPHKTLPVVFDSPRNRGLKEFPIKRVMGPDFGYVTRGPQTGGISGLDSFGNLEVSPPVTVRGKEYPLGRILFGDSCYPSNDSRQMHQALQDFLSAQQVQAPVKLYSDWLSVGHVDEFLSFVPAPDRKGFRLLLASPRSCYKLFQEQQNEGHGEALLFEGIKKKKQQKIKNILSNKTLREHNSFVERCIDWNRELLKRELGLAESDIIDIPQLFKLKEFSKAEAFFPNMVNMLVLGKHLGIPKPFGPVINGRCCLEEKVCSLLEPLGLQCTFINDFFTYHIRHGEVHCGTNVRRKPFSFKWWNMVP

In general, pKi refers to the Ki on a negative log10 scale, so that one unit is a factor of ten. As for `N=C(CCl)NCCC[C@H](NC(=O)c1cc(I)c(F)c(I)c1O)c1nc2ccccc2[nH]1` [Compound 20], at PAD2, the pKi was 4.76.
Consider `N=C(CCl)NCCC[C@H](NC(=O)c1cc(Cl)cc(Cl)c1O)c1nc2ccccc2[nH]1` [Compound 14], for which the “Fold PAD selectivity” value at PAD3 was “[2] fold”; at PAD2 it was “[1] fold”; on PAD1, “[2] fold”; at PAD4, “[1] fold”. The kinact/KI on PAD3 is given as 5500 ± 300^‡ M^−1min^−1; on PAD2, 3400 ± 70^‡ M^−1min^−1; on PAD1 it was 5300 ± 210^‡ M^−1min^−1; on PAD4 it was 2600 ± 70^‡ M^−1min^−1.
For orientation: kinact means the maximal first-order rate at which the target is inactivated. Consider `N=C(CF)NCCC[C@H](NC(=O)c1cc(I)ccc1O)c1nc2ccccc2[nH]1` [Compound 15], for which the “Fold PAD selectivity” value on PAD3 was “[4] fold”; at PAD2 it was “[1] fold”; at PAD1, 13 fold; on PAD4, “[5] fold”. Further, the kinact/KI at PAD3 (setting [1]) was 8.33 M⁻¹ s⁻¹; at PAD2 (setting [1]) it was 2 M⁻¹ s⁻¹; on PAD1 (setting [1]) it was 25 M⁻¹ s⁻¹; on PAD4 (setting [1]) it was 10.7 M⁻¹ s⁻¹. Moreover, on PAD1, the pKi was 4.33. For the same compound, the kinact on PAD1 (read-out: kinact (converted)) is 0.00117 s⁻¹. Also, the “fold less potent than 1 (drop in potency for PAD1)” value on PAD1 is given as 7 fold.
Turning to `N=C(CF)NCCC[C@H](NC(=O)c1cc(Br)cc(Br)c1O)c1nc2ccccc2[nH]1` [Compound 11], the “Fold PAD selectivity” value on PAD3 is “[3] fold”; at PAD2, “[1] fold”; on PAD1, 25 fold; at PAD4, “[2] fold”. Moreover, the kinact/KI on PAD3 (setting [1]) was 7 M⁻¹ s⁻¹; on PAD2 (setting [1]) it was 2.17 M⁻¹ s⁻¹; on PAD1 (setting [1]) it was 54.7 M⁻¹ s⁻¹; on PAD4 (setting [1]) it was 4.17 M⁻¹ s⁻¹. The same compound gave a pKi at PAD1 of 4.26. The kinact on PAD1 (read-out: kinact (converted)) was 0.003 s⁻¹. Besides, the “fold less potent than 1 (drop in potency for PAD1)” value on PAD1 stood at 3 fold.
Regarding `C#Cc1c(I)cc(C(=O)N[C@@H](CCCNC(=N)CCl)c2nc3ccccc3[nH]2)c(O)c1I` [Compound 22], the kinact at PAD3 came out at 0.8 min⁻¹; at PAD2 it was 0.79 min⁻¹; at PAD1, 0.0423 s⁻¹; at PAD4, 0.77 min⁻¹. The “Fold PAD selectivity” value on PAD3 was “[1] fold”; at PAD2 it was “[4] fold”; at PAD4, “[3] fold”. In addition, the pKi was 4.01 at PAD3 (setting [2]), 4.60 on PAD2, 4.45 on PAD1 and 4.51 at PAD4 (setting [2]). Also, the kinact/KI is reported as 8200 ± 30* M^−1min^−1 on PAD3, 31230 ± 1440* M^−1min^−1 on PAD2, 72160 ± 10970* M^−1min^−1 on PAD1 and 25000 ± 1370* M^−1min^−1 on PAD4.
As for `N=C(CCl)NCCC[C@H](NC(=O)c1cccc(I)c1O)c1nc2ccccc2[nH]1` [Compound 18], the “Fold PAD selectivity” value on PAD3 was “[1] fold”; at PAD2, “[2] fold”; on PAD1, “[4] fold”; at PAD4, “[3] fold”. Further, the kinact/KI at PAD3 is 1170 ± 40^† M^−1min^−1; on PAD2 it was 2210 ± 270^† M^−1min^−1; on PAD1, 4100 ± 300^‡ M^−1min^−1; at PAD4, 3160 ± 550^† M^−1min^−1.
Compound `N=C(CCl)NCCC[C@H](NC(=O)c1cc(I)cc(I)c1O)c1nc2ccccc2[nH]1` [Compound 2] had a pKi at PAD2 of 4.03.
For the compound `N=C(CCl)NCCC[C@H](NC(=O)c1cc(I)ccc1O)c1nc2ccccc2[nH]1` [Compound 16], the “Fold PAD selectivity” value on PAD3 is “[3] fold”; on PAD2 it was “[1] fold”; on PAD1, “[2] fold”; at PAD4 it was “[2] fold”. For the same compound, the kinact/KI is given as 5000 ± 280^‡ M^−1min^−1 at PAD3, 1700 ± 70^‡ M^−1min^−1 at PAD2, 3900 ± 100^‡ M^−1min^−1 at PAD1 and 3600 ± 70^‡ M^−1min^−1 on PAD4.
`N=C(CF)NCCC[C@H](NC(=O)c1cc(Cl)cc(Cl)c1O)c1nc2ccccc2[nH]1` [Compound 13]: the “Fold PAD selectivity” value on PAD3 is “[4] fold”; at PAD2, “[1] fold”; at PAD1, 10 fold; on PAD4, “[2] fold”. Moreover, the kinact/KI was 9.17 M⁻¹ s⁻¹ at PAD3 (setting [1]), 2.17 M⁻¹ s⁻¹ at PAD2 (setting [1]), 21.5 M⁻¹ s⁻¹ at PAD1 (setting [1]) and 4.83 M⁻¹ s⁻¹ on PAD4 (setting [1]). For the same compound, at PAD1, the pKi was 3.90. Besides, on PAD1 (read-out: kinact (converted)), the kinact was 0.00267 s⁻¹. Moreover, at PAD1, the “fold less potent than 1 (drop in potency for PAD1)” value came to 8 fold.
On to `CC(C)c1cc(C(=O)N[C@@H](CCCNC(=N)CCl)c2nc3ccccc3[nH]2)c(O)c(C(C)C)c1` [Compound 10], for which the pKi at PAD2 was 3.88.
With `N=C(CF)NCCC[C@H](NC(=O)c1cc(I)cc(I)c1)c1nc2ccccc2[nH]1` [Compound 5], the “Fold PAD selectivity” value at PAD3 was “[3] fold”; on PAD2, “[1] fold”; at PAD1 it was “[9] fold”; at PAD4, “[1] fold”. Also, the kinact/KI on PAD3 (setting [1]) is 41.2 M⁻¹ s⁻¹; at PAD2 (setting [1]), 12.8 M⁻¹ s⁻¹; on PAD1 (setting [1]) it was 121 M⁻¹ s⁻¹; on PAD4 (setting [1]), 17.8 M⁻¹ s⁻¹. On PAD1, this compound gave a pKi of 4.52. In addition, at PAD1 (read-out: kinact (converted)), the kinact is 0.00367 s⁻¹.
As to `COc1c(I)cc(I)cc1C(=O)NC(CCCNC(=N)CF)c1nc2ccccc2[nH]1` (stereo not shown) [Compound 3], the “Fold PAD selectivity” value on PAD3 is “[3] fold”; at PAD2 it was “[2] fold”; on PAD1, “[8] fold”; on PAD4, “[1] fold”. The kinact/KI at PAD3 (setting [1]) was 36 M⁻¹ s⁻¹; on PAD2 (setting [1]) it was 27.5 M⁻¹ s⁻¹; at PAD1 (setting [1]), 97.8 M⁻¹ s⁻¹; at PAD4 (setting [1]), 12.5 M⁻¹ s⁻¹. The compound further showed a pKi at PAD1 of 4.35. In addition, at PAD1 (read-out: kinact (converted)), the kinact was 0.00433 s⁻¹.
`COc1c(I)cc(I)cc1C(=O)N[C@@H](CCCNC(=N)CCl)c1nc2ccccc2[nH]1` [Compound 4] showed a pKi at PAD2 of 3.68.
Turning to `N=C(CF)NCCC[C@H](NC(=O)c1cccc(I)c1O)c1nc2ccccc2[nH]1` [Compound 17], the “Fold PAD selectivity” value at PAD3 is “[2] fold”; at PAD2 it was “[1] fold”; on PAD1, 3 fold; on PAD4, “[2] fold”. Moreover, the kinact/KI is 240 ± 30^† M^−1min^−1 at PAD3, 110 ± 10^† M^−1min^−1 on PAD2, 300 ± 30^† M^−1min^−1 on PAD1 and 180 ± 20^† M^−1min^−1 at PAD4. Further, at PAD1, the “fold less potent than 1 (drop in potency for PAD1)” value was found to be 35 fold.
`N=C(CCl)NCCC[C@H](NC(=O)c1cc(Br)cc(Br)c1O)c1nc2ccccc2[nH]1` [Compound 12] gave a pKi at PAD2 of 4.04.
